Patent publication US20240024491A1, “MANNOSYLATED AMINE DEXTRAN DRUG DELIVERY VEHICLES WITH DEGRADABLE DISULFIDE/CARBONATE LINKERS TARGETING PAYLOADS TO CD206 EXPRESSING CELLS” (Navidea Biopharmaceuticals, Inc., priority 2022, published 2024)

What was measured:
[1] = system: human macrophages; test: Human macrophage cell culture assay, surface marker expression (MFI) by flow cytometry; assay type: cell-based; settings: MAD-PAC3.5 or equal molar equivalent concentration of free paclitaxel; vs no drug control
Procedure: In this assay, human peripheral blood monocytes (hPBMCs) were incubated for five days in RPMI+10% FBS+1x Penicillin/Streptomycin/L-glutamine+5Ong/mlGM-CSF (complete medium) at a concentration of 500,000 monocytes per well in 48 well tissue culture plates. […] GM-CSF induces the macrophages to adopt an activated phenotype that is intermediate between the extremes of M1 or M2. […] Saline and Vehicle (MAD without a drug payload, 23.3 μg/ml) were added as alternative supplements to other cultures as negative controls. The macrophage cell cultures were incubated with the supplemented complete medium for 24 hours after which it was removed and replaced with fresh complete medium. The macrophage cultures were then incubated for an additional three days. The three-day post treatment incubation was performed to permit assessment of durable changes in macrophage phenotypes.
After the additional three-day incubation in fresh complete medium, the cells were harvested and evaluated by flow cytometry for viability (DAPI) or expression of macrophage surface markers. These markers are representative of markers that are frequently considered as indicative of either M1-like or M2-like phenotypes or are known immune checkpoint receptors. The evaluated cell surface markers included CD206, CD163, CD80, CD86, MHC1, MHC2, SIRPa, and PD-1 using antibodies specific for each marker. […] The outputs of the flow cytometry assays were mean fluorescent intensities (MFI). Macrophages differentiated from monocytes collected from three separate donors were evaluated for all treatments. For each donor's macrophages, all experiments were run in triplicate.

[2] = system: CT26 cells; test: CT26/Balb-c syngeneic mouse tumor model; assay type: in vivo; settings: intravenous injections on treatment days 1, 4, 7 and 11; MAD-PAC3.5 127 μg/injection, free paclitaxel molar equivalent
Procedure: Mice were implanted with CT26 cells that were permitted to grow and become established until they had attained tumor volumes of 80-100 mm 3. Tumor bearing mice (n=10/treatment group) were administered test articles by intravenous injections on 4 days (treatment days, 1, 4, 7, and 11). […] Tumor volumes were measured and recorded at regular intervals.

CC(=O)O[C@H]1C(=O)[C@@]2(C)[C@H]([C@H](OC(=O)c3ccccc3)[C@]3(O)C[C@H](OC(=O)[C@H](O)[C@@H](NC(=O)c4ccccc4)c4ccccc4)C(C)=C1C3(C)C)[C@]1(OC(C)=O)CO[C@@H]1C[C@@H]2O [free paclitaxel, paclitaxel]
expression of CD80 [1]: increased the expression
expression of CD86 [1]: increased the expression
expression of CD163 [1]: modestly increased expression
expression of CD206 [1]: modestly increased expression
expression of MHC1 [1]: not significantly altered
expression of MHC2 [1]: not significantly altered
expression of PD1 [1]: not by free paclitaxel
expression of SIRPa [1]: not significantly altered
mean tumor volume on treatment day 14 compared to saline [2]: modestly decreased mean tumor volumes
